Measurements: patent US20210060058A1, “COMPOSITIONS AND METHODS FOR TREATING HYDROGEN SULFIDE-MEDIATED HYPERDYNAMIC CIRCULATION” (priority 2019, published 2021)
Like-named read-outs stand apart in the source and are kept apart here.

How the values were obtained:
rats = test: Portal vein flow during 20-minute jejunal NaHS infusion in rats fed MgO diet; type: in vivo, rat
Excerpt: FIG. 7. Portal venous flow recordings over 20-minute infusion of NaHS in two groups: Standard-diet-fed rats and Magnesium Oxide (MgO)-fed rats. Vehicle group shown as control; standard diet fed rats followed by water infusion. All measurements shown as percent change from baseline to accommodate for compensate for variation in baseline data; data shown as percent change±SEM. Baseline flow measurements recorded and average (shown as time 0) for each group. […] No difference is noted between MgO diet group and vehicle.
Rats were divided into three groups: Magnsium Oxide (MgO) diet, 500 mg MgO per 100 g chow, with NaHS infusion into small intestine (jejunim); standard diet with NaHS infusion into jejunum; and standard diet with control (vehicle) infusion into jejunim. Diets were administered for three days total. At the end of diet treatment, rats underwent surgery to measure porta vein flow before and after infusion of small intestine (jejunum) sodium hydrosulfide (NaHS), a hydrogen sulfide donor. Portal vein blood flow was recorded at baseline for 10 minutes and throughout 20-minute infusion periods. Data reported as percent change from baseline; infusion started at minute 1 of data shown. Blood flow data are reported as mean percent baseline change+/−SEM and were compared by 2-way RM-ANOVA.

[1] = tested on: Desulfovibrio vulgaris (DSV); test: Production of hydrogen sulfide gas by DSV in the culture system; type: cell-based; details: molybdate at 10 μM, 50 μM, and 1 mM; dose dependent
Excerpt: FIG. 9. Effect of molybdate on the production of hydrogen sulfide gas measured in parts per billion (ppb) in the culture system.

[2] = tested on: Desulfovibrio vulgaris (DSV); details: 14 hours
Excerpt: FIG. 8. Effect of molybdate on growth of Desulfovibrio vulgaris (DSV) on a culture plate.

SMILES | Portal venous flow (percent change from baseline), MgO diet group versus vehicle (rats; 500 mg MgO per 100 g chow for three days, 20-minute NaHS infusion, vehicle = standard diet, water infusion) | Portal vein blood flow, MgO diet group versus other two groups (rats; at minutes 20 of infusion) | Generation of H2S gas by DSV (ppb) [1] | Growth of DSV ([2]; molybdate at 10 μM, 50 μM, and 1 mM, dose-dependent) | Growth of DSV ([2]; molybdate at 1 mM)
[O]=[Mg] [MgO, Magnesium Oxide] | No difference | Statistical significant difference | – | – | –
[O]=[Mo](=[O])([O-])[O-] [molybdate] | – | – | suppressed the generation of H2S gas | suppressed the growth | completely suppressing the growth
